The nature of one data set: physchem. The conditions noted are these: for light transmittance of the diluted solution: 1 h, 1.82 mM. In kind it is physicochemical. The protocol:
All the metabolites obtained during this study were more polar than their parent compound (−)-α-bisabolol (1) and proposed to have higher aqueous solubility. In order to confirm the improvement in solubility, a modified kinetic solubility test was carried out using the stock solutions of compounds 1–12 (20 mM in dimethyl sulfoxide). […] This was confirmed by measuring the light transmittance of the diluted solutions.
The solubility of compounds 1–12 was evaluated by the modified kinetic solubility assay. Compounds 1–12 were dissolved in dimethyl sulfoxide (DMSO) to yield 20 mM stock solutions, then 10 μL of the compound stock solution was diluted with 100 μL water. After all the solutions were prepared, the vials were placed under room temperature and allowed to mix for 1 h. After this, the light transmittance was measured at a scan width of 5 nm over the range of 390 to 650 nm using a SpectraMax 190 Microplate reader (Molecular Devices, Sunnyvale, CA, USA). After centrifugation, the supernatant was analyzed by HPLC under 200 nm using a Zorbax SB-CN (250 × 10 mm) column with 60% methanol as mobile phase at a flow rate of 2 mL/min.

Data set [1] concerns lung cancer cell line A549. The conditions noted are these: cited from earlier work.
A further data set has as its target butyryl cholinesterase. The arrangement: method as in PMID 23046385. The conditions noted are these: read-out: inhibitory activity against butyryl cholinesterase IC50; cited from earlier work.
A further data set deals with promastigotes. The arrangement: method as in PMID 25448354, PMID 27616730. The conditions noted are these: in vitro, cited from earlier work.
On the set-up of data set [2]: method as in earlier work. The conditions noted are these: antioxidant activity; cited from earlier work.
Data set [3] has as its system LPS-induced production of NO and PGE2. More on the design: method as in PMID 21771629. The conditions noted are these: dose-dependent; cited from earlier work.
Details of data set [4]: method as in PMID 24894548. The conditions noted are these: cited from earlier work.
The subject of data set [5] is healthy and infected hamsters. The conditions noted are these: cited from earlier work.

Values after ≈ are worked out from the molar mass of the structure shown. Like-named read-outs stand apart in the source and are kept apart here.

With `CC(C)=CCC[C@](C)(O)[C@H]1CC[C@](C)(O)[C@H](O)C1` [Compound 8, (1S,3R,4S,7S)-3,4-dihydroxy-α-bisabolol], the “light transmittance of the diluted solution” value (from here on “light transmittance”) in the data set “physchem” worked out at 90%.

Turning to `CC(C)=CCC[C@](C)(O)[C@@H]1CC=C(C)[C@H](O)C1` [Compound 2, (1R,5R,7S)-5-hydroxy-α-bisabolol], the “light transmittance” value in the data set “physchem” is on record as 90%.

With `C=C(CO)C1CCC2=CC(=O)CC(C)C2(C)C1` (centres unmarked) [13-hydroxynootkatone], the “cytotoxic activity IC50” value in data set [1] was 36 µg/mL.

`CC1=CC[C@@](O)([C@]2(C)CC[C@@H](C(C)(C)O)O2)CC1` [Compound 5, (1R,7S,10S)-1-hydroxybisabolol oxide B]: the “light transmittance” value in the data set “physchem” came to 90%.

`C=C1CC[C@H]2O[C@]2(C)CC[C@@H]2[C@@H]1CC2(C)C` [caryophyllene oxide]: the IC50 (in general, the concentration at which inhibition is half-maximal) at butyryl cholinesterase is 208 µM.

`CC(C)=CCC[C@](C)(O)[C@@H]1CC=C(C)CC1` [Compound 1, (−)-α-Bisabolol]: in “physchem” (10 μL of 20 mM DMSO stock diluted with 100 μL water), the “appearance after dilution (turbidity / precipitates)” value is “White turbidity”. Also, in “physchem”, the “light transmittance” value is “less than 50%”. Besides, the concentration in solution in the data set “physchem” (aqueous with cosolvent or surfactant or cyclodextrin, kinetic from dmso stock) (solubility at 1 h) came to 260 µM (≈ 57.8 µg/mL). In addition, the “antileishmanial activity IC50” value in the data set on promastigotes (24 h) was 8.07 µg/mL; with promastigotes (48 h), 4.26 µg/mL. For the same molecule, the “IC50 for DPPH radical scavenging ability” value in data set [2] was 43880 µg/mL. Besides, the “effect on LPS-induced production of NO and PGE2” value in data set [3] is listed as “significantly reduce”. The “effect on TPA-induced ear thickness and histopathological damage in the ear tissue” value in data set [4] is reported as “significantly inhibited”. The “toxicity or side effects after administration” value in data set [5] is “did not lead to the appearance of toxicity or side effects”.

For the molecule 14-hydroxymethyl caryophyllene oxide, the IC50 at butyryl cholinesterase is 10.9 µM.

Turning to `CC1=CC[C@@H]([C@]2(C)CC[C@H](O)C(C)(C)O2)CC1` [α-Bisabolol oxide A], the “IC50 for DPPH radical scavenging ability” value in data set [2] is 1500 µg/mL.

As to `CC(C)=CCC[C@](C)(O)[C@@H]1CC=C(CO)CC1` [Compound 11, 15-hydroxy-α-bisabolol], the “light transmittance” value in “physchem” is reported as 90%.

The record behind these values is publication PMC8840173 (Molecules, 2022).
